Patent publication US10487362B2, “Methods for diagnosing cancer based on small nucleolar RNA HBII-52” (Health Research, Inc., priority 2013, dated 2019)
Entries after “also recorded” stand apart in the source; their conditions may differ.

Legend:
TRAMP-C2G cells = test: Cell viability of TRAMP-C2G stable cell lines (Cell-Titer Fluor, 72 h growth assay); type: cell-based, mouse; conditions: 72 h culture; for influence on the effect of MBII-52 or SB 242,084 on cell viability: TRAMP-C2G cells
Method: FIG. 10. MBII-52 was stably overexpressed (>60-fold overexpression) in TRAMP-C2G cells from the pSilencer CMV 4.1 vector. Cell viability was measured (n=5, error bars are SEM) after 72 h culture using Cell-Titer Fluor cell viability assay and normalized to scramble-transfected, vehicle-treated control. One-sample t-tests were performed to compare experimental groups with scramble/vehicle control. Two-tailed t-tests were used to compare the two SB 242,084 treatment groups with each other. * indicated p<0.05 for either test. MBII-52 increases cell viability, while SB 242,084 inhibits it.
To test the hypothesis that HB/MBII-52 can activate 5-HT2cR and promote cancer progression stable cell lines were generated from TRAMP C2D and C2G cells that overexpress MBII-52 from pSilencer 4.1 CMV vector along with control cells expressing a scrambled RNA that has no homology to the mouse or human genome.
Numerous downstream pathways activated by 5-HT2cR have been studied in neuronal cell lines with a focus on neurological development and disease. The pathways relevant to this disclosure are Erk, PI3-K/Akt and RhoA (36,39). Each has previously been studied and targeted in PCa and other cancers. Activation of these pathways during PCa progression or in vitro can directly propagate a transition to malignancy. For example, Erk upregulates hypoxia inducible factor 1 alpha (HIF1α) and therefore vascular endothelial growth factor (Vegf) in response to hypoxia in rats (40). Vegf secretion also appears to be regulated by Erk in LNCaP cell lines (41). Erk is also able to transactivate the androgen receptor (AR) independent of androgen, by phosphorylating steroid receptor co-activator-1 (SRC-1), which then binds AR resulting in ligand-independent activation of AR. Therefore, Erk directly contributes to androgen-independence (41). […] Indeed, stable cell lines overexpressing MBII-52 appeared more proliferative then scramble control stable cell lines in a 72 h growth assay, after which viability was measured using Cell-Titer Fluor Assay (n=5) (FIG. 10).

DU145 clones DU6 and DU2 = test: Cell viability of DU145 HBII-52 clones in response to 5-HT; type: cell-based, human; conditions: high concentrations; HBII-52 overexpressing DU6 compared to low expressing DU2; 3 independent experiments
Text: FIG. 17. Overexpression of HBII-52 affects cell viability in response to 5-HT treatment. […] Data are represented as the average+/−SEM of 3 independent experiments

MBII-52 = conditions: C2G cells, serum starvation 72 h, DHT supplementation
Text: Serum starvation induces NED of PCa cell lines (25). […] Furthermore, NED is associated with CR-PCa in vivo, supporting the importance of factors that induce NED as initiators of transition to androgen-independence (26).

[1] = tested on: Human Prostate cancer cell lines; test: Cell viability of human prostate cancer cell lines treated for 72 h; type: cell-based; conditions: 72 h treatment, 3 independent experiments
Method: FIG. 11. Human Prostate cancer cell lines were treated with SB 242,084 for 72 h. […] Data is the average of 3 independent experiments with error bars indicating SEM.
(§1) Our tests indicate that SB 242,084 is growth-inhibitory in human PCa cell lines (FIG. 11).

PC3 cells = test: Growth inhibition under serum starvation, PC3; type: cell-based, human; conditions: PC3, serum starvation vs serum
Text: (§2) FIG. 12. […] Data is representative of multiple independent experiments.
as §1

LNCaP-C4-2 cells = test: Growth inhibition under serum starvation, LNCaP-C4-2; type: cell-based, human; conditions: LNCaP-C4-2, serum starvation vs serum
Text: as §2, §1

5-HT2cR [2] = target: T1, 5-HT2cR (Homo sapiens, UniProt P28335); conditions: cited from earlier work
T1 sequence (P28335 33-458): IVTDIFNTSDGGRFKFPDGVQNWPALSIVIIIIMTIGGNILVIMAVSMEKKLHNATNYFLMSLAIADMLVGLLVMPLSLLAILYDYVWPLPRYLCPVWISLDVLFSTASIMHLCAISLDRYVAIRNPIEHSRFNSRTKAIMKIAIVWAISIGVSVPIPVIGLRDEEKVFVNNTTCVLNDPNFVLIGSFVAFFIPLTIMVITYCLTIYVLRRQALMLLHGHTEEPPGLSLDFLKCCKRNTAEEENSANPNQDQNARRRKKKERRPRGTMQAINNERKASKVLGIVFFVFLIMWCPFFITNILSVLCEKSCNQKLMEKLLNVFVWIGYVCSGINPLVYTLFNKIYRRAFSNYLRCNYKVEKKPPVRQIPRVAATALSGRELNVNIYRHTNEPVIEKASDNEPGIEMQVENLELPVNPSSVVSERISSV

[3] = compared with SB206,553; cited from earlier work
5-HT2cR [4] = target: T1, 5-HT2cR; conditions: in vitro and in vivo; cited from earlier work
Erk = conditions: cited from earlier work

Row | Compound | influence on the effect of MBII-52 or SB 242,084 on cell viability (TRAMP-C2G cells) | cytotoxic response (cell viability) (DU145 clones DU6 and DU2) | MBII-52 expression increase caused by serum starvation (MBII-52) | cell viability (TRAMP-C2G cells; scramble and MBII-52 overexpressing TRAMP-C2G cells, n=5) | cell viability / growth inhibition [1] | growth inhibition upon serum starvation (PC3 cells) | growth inhibition upon serum starvation (LNCaP-C4-2 cells) | potency relative to SB 206,553 (5-HT2cR [2]) | selectivity for 5-HT2cR over 5-HT2aR (5-HT2cR [2]) | selectivity for 5-HT2cR over 5-HT2bR (5-HT2cR [2]) | resistance to metabolic methylation [3] | antagonist activity (5-HT2cR [4]) | activation of downstream targets including Erk (Erk)
1 | NCCc1c[nH]c2ccc(O)cc12 [5-HT, serotonin] | Neither DHT nor 5-HT appear to have much influence | increased cytotoxic response | – | – | – | – | – | – | – | – | – | – | –
2 | C[C@]12CCC(=O)C[C@@H]1CC[C@@H]1[C@@H]2CC[C@]2(C)[C@@H](O)CC[C@@H]12 [DHT, 5α-dihydrotestosterone] | Neither DHT nor 5-HT appear to have much influence | – | almost completely block the increase in MBII-52; also recorded: abrogates the observed upregulation of MBII-52 | – | – | – | – | – | – | – | – | – | –
3 | Cc1cc2c(cc1Cl)N(C(=O)Nc1ccc(Oc3cccnc3C)nc1)CC2 [SB 242,084] | – | – | – | inhibits; also recorded: effective in both scramble and MBII-52 overexpressing cells | dose-dependent decrease in cell viability levels; also recorded: growth-inhibitory | significantly (p<0.05) further improved | significantly (p<0.05) further improved | increased potency | greater than 100 fold | greater than 100 fold | more resistant to the metabolic methylation than SB206,553 | potent antagonist activity | inhibits activation
